“And” between values parts separate entries of the source, which are not always exact repeats. Equal entries are not always repeated. Where two headings read alike, the source gives them in different places.
What was measured:
[1] = humans, cited from earlier work
[2] = Baboon PET imaging: brain uptake, kinetic analysis and SERT parameters; format: in vivo; conditions: male, baboon, intravenous, baboons
Method in brief: (§1)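 Two isoflurane-anaesthetised adult male baboons, each radioligand tested twice (test-retest); i.v. bolus, 91 min 3D emission scan with arterial sampling, MRI-defined regions. Brain uptake as % ID g^−1, with peak time and washout; VT from one-tissue compartment model (K1/k2) using arterial plasma input.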

[3] = test system: SERT; assay: as above; format: in vivo; conditions: for Kp: male, baboon, brain, intravenous
Method in brief: as §1

[4] = BP = VT ROI − VT CER, baboons, mean ± SD of four experiments
[5] = Mean ± SD of four experiments in two baboons
[6] = baboons, mean ± SD of four experiments
[7] = last scan 90 minutes, baboons, mean ± SD of four experiments
[8] = one-tissue compartment model, baboons, mean ± SD of four experiments

## CN(C)Cc1ccccc1Sc1ccc(C#N)cc1N [[^11C]DASB]
[1]; literature
  Parent fraction in plasma at 30 minutes: 40±7%
[1]; n=5 (Ginovart et al., 2001)
  f1 (plasma free fraction): 11.0±1.2%
[2]; brain nonspecific distribution volume (cerebellum), calculated from f1 and cerebellar VT, read-out: f2 (free fraction in the nonspecific distribution volume)
  fraction unbound: 0.0077 ± 0.0008
[2]; brain regions (average of all regions), read-out: VT, average of all regions and all animals
  Kp: 29.2 ± 11.5
[2]; cerebellum, one-tissue compartment model, mean ± SD of four experiments, read-out: VT Cerebellum (VT CER, nonspecific distribution volume)
  Kp: 17.3 ± 0.5
[3]; [4]
  Binding potential Cingulate Cortex: 3.8 ± 0.8 mL/g
  Binding potential Hippocampus: 10.0 ± 1.3 mL/g
  Binding potential Midbrain: 29.1 ± 4.0 mL/g
  Binding potential Occipital Cortex: 2.0 ± 1.1 mL/g
  Binding potential Striatum: 14.4 ± 1.5 mL/g
  Binding potential Temporal Cortex: 5.1 ± 1.9 mL/g
  Binding potential Thalamus: 30.2 ± 4.9 mL/g
[3]; Baboon A, single experiment
  Equilibrium specific to non-specific partition coefficient (V3″) Cingulate Cortex: 0.26 and 0.25
  Equilibrium specific to non-specific partition coefficient (V3″) Hippocampus: 0.48 and 0.65
  Equilibrium specific to non-specific partition coefficient (V3″) Midbrain: 1.46 and 1.66
  Equilibrium specific to non-specific partition coefficient (V3″) Occipital Cortex: 0.15 and 0.18
  Equilibrium specific to non-specific partition coefficient (V3″) Striatum: 0.72 and 0.89
  Equilibrium specific to non-specific partition coefficient (V3″) Temporal Cortex: 0.34 and 0.42
  Equilibrium specific to non-specific partition coefficient (V3″) Thalamus: 1.42 and 1.68
[3]; Baboon B, single experiment
  Equilibrium specific to non-specific partition coefficient (V3″) Cingulate Cortex: 0.21 and 0.16
  Equilibrium specific to non-specific partition coefficient (V3″) Hippocampus: 0.62 and 0.54
  Equilibrium specific to non-specific partition coefficient (V3″) Midbrain: 1.64 and 1.96
  Equilibrium specific to non-specific partition coefficient (V3″) Striatum: 0.83 and 0.87
  Equilibrium specific to non-specific partition coefficient (V3″) Temporal Cortex: 0.21
  Equilibrium specific to non-specific partition coefficient (V3″) Thalamus: 1.79 and 2.07
[3]; [5]
  Equilibrium specific to non-specific partition coefficient (V3″) Cingulate Cortex: 0.22 ± 0.04
  Equilibrium specific to non-specific partition coefficient (V3″) Hippocampus: 0.58 ± 0.08
  Equilibrium specific to non-specific partition coefficient (V3″) Midbrain: 1.68 ± 0.21
  Equilibrium specific to non-specific partition coefficient (V3″) Occipital Cortex: 0.11±0.06
  Equilibrium specific to non-specific partition coefficient (V3″) Striatum: 0.83 ± 0.08
  Equilibrium specific to non-specific partition coefficient (V3″) Temporal Cortex: 0.29 ± 0.10
  Equilibrium specific to non-specific partition coefficient (V3″) Thalamus: 1.74 ± 0.27
[3]; baboons
  K1, average of all regions and all animals: 1.21 ± 0.22 mL/g/min
  k2, average of all regions and all animals: 0.047 ± 0.018 min⁻¹
[3]; baboons, combining all regions
  V3″ expressed in percentage of [^11C]McN 5652 V3″: 142±29%
[3]; baboons, mean of all regions
  Mean regional peak uptake time: 19 ± 9 min
  Mean regional wash-out (% decrease between peak time and last scan): 52±19%
[3]; [6]
  Regional uptake peak time Cerebellum: 12 ± 5 min
  Regional uptake peak time Cingulate Cortex: 14 ± 3 min
  Regional uptake peak time Hippocampus: 22 ± 10 min
  Regional uptake peak time Midbrain: 27 ± 13 min
  Regional uptake peak time Occipital Cortex: 16 ± 4 min
  Regional uptake peak time Striatum: 22 ± 10 min
  Regional uptake peak time Temporal Cortex: 19 ± 5 min
  Regional uptake peak time Thalamus: 24 ± 10 min
[3]; baboons, region encompassing the entire brain
  Total brain uptake at 45 min: 0.013±0.002 % ID g^−1
[3]; [7]
  Regional activity wash-out: % decrease from peak to last scan, Cerebellum: 68 ± 14%
  Regional activity wash-out: % decrease from peak to last scan, Cingulate Cortex: 64 ± 10%
  Regional activity wash-out: % decrease from peak to last scan, Hippocampus: 46 ± 19%
  Regional activity wash-out: % decrease from peak to last scan, Midbrain: 32 ± 19%
  Regional activity wash-out: % decrease from peak to last scan, Occipital Cortex: 65 ± 11%
  Regional activity wash-out: % decrease from peak to last scan, Striatum: 49 ± 18%
  Regional activity wash-out: % decrease from peak to last scan, Temporal Cortex: 58 ± 13%
  Regional activity wash-out: % decrease from peak to last scan, Thalamus: 36 ± 16%
[3]; cingulate cortex, one-tissue compartment model, baboons, mean ± SD of four experiments, read-out: VT Cingulate Cortex
  Kp: 21.1 ± 0.9
[3]; hippocampus, one-tissue compartment model, baboons, mean ± SD of four experiments, read-out: VT Hippocampus
  Kp: 27.3 ± 1.4
[3]; midbrain, one-tissue compartment model, baboons, mean ± SD of four experiments, read-out: VT Midbrain
  Kp: 46.4 ± 4.3
[3]; occipital cortex, one-tissue compartment model, baboons, mean ± SD of four experiments, read-out: VT Occipital Cortex
  Kp: 19.3 ± 1.5
[3]; striatum, one-tissue compartment model, baboons, mean ± SD of four experiments, read-out: VT Striatum
  Kp: 31.7 ± 1.7
[3]; temporal cortex, one-tissue compartment model, baboons, mean ± SD of four experiments, read-out: VT Temporal Cortex
  Kp: 22.5 ± 2.1
[3]; thalamus, one-tissue compartment model, baboons, mean ± SD of four experiments, read-out: VT Thalamus
  Kp: 47.5 ± 5
[3]; [8]
  K1 Cerebellum: 1.36 ± 0.24 mL/g/min
  K1 Cingulate Cortex: 1.26 ± 0.09 mL/g/min
  K1 Hippocampus: 0.98 ± 0.20 mL/g/min
  K1 Midbrain: 1.23 ± 0.20 mL/g/min
  K1 Occipital Cortex: 1.15 ± 0.24 mL/g/min
  K1 Striatum: 1.27 ± 0.21 mL/g/min
  K1 Temporal Cortex: 1.05 ± 0.09 mL/g/min
  K1 Thalamus: 1.35 ± 0.29 mL/g/min
  K2 Cerebellum: 0.078 ± 0.013 min⁻¹
  K2 Cingulate Cortex: 0.060 ± 0.004 min⁻¹
  K2 Hippocampus: 0.036 ± 0.006 min⁻¹
  K2 Midbrain: 0.027 ± 0.005 min⁻¹
  K2 Occipital Cortex: 0.059 ± 0.011 min⁻¹
  K2 Striatum: 0.040 ± 0.007 min⁻¹
  K2 Temporal Cortex: 0.047 ± 0.004 min⁻¹
  K2 Thalamus: 0.028 ± 0.006 min⁻¹
  VT Cerebellum (VT CER, nonspecific distribution volume): 17.3 ± 0.5 mL/g

Source: patent US20110097274A1, “Carbon-11 and fluorine-18 labeled radioligands for positron emission tomography (PET) imaging for the brain serotonin transporters” (priority 2002, published 2011)
